Data published in patent US20130101684A1, “Compounds, Compositions, And Methods For Reducing Or Eliminating Bitter Taste” (Chromocell Corporation, priority 2010, published 2013).
Read-outs that look alike come from different tables or passages of the source.

How the values were obtained:
Assay type in all cases: in vivo, humans
[1] = tested on: bitter taste of an aqueous solution of KCl; experiment: Sip and spit taste test of aqueous KCl test solutions, bitterness rated 0-15 against KCl solution standards; conditions: aqueous KCl 4.85 g/L, 1% EtOH, human panel, vs KCl solution standard, dash = at none of the tested conc.
Protocol: Edible KCl solution compositions (“KCl test solutions”) were prepared by first dissolving varying amounts of the test compounds in an amount of ethanol or water (depending on the solubility of the compound) to create a 5 mg/mL stock compound solution. An amount of this stock compound solution is then added to an aqueous KCl solution. Enough EtOH is then added to the resulting stock compound/KCl solution so that the final KCl test solution contains 1% EtOH. KCl solution standards were similarly prepared by dissolving various amounts of KCl in water and ethanol without adding any test compound. […] The effect of the test compounds on the perception of the bitter taste of an aqueous solution of KCl in humans was evaluated using a “sip and Spit” test as follows. A set of KCl solutions standards was developed and each standard solution was assigned a bitterness taste score of 0-15 (corresponding to aqueous KCl concentrations of 0 mM-120 mM). Panelists were trained to recognize these standards. In addition, before each day of testing, panelists were tested to see if they could determine differences in taste between the standard solutions, if a panelist was unable to recognize a change in KCl concentration, they were excluded from the panel for that day. In a blind taste test, panelists were asked to compare the bitter taste of a small quantity (e.g. 8 ml) of each of the KCl Test Solutions to the taste of a KCl solution standard, without swallowing (see, e.g., Table 1). Specifically, panelists were asked to rate the bitterness of each KCl Test Solution on a scale of 0-15 using the same scale developed for the KCl solution standards. Each sample was tested in 2-4 discrete taste test experiments. Panelists were asked to rinse with water, eat a cracker, and wait approximately 10 minutes between samples.

[2] = tested on: bitter taste of an aqueous solution of potassium lactate; experiment: Sip and spit taste test of aqueous potassium lactate test solutions; conditions: aqueous potassium lactate (KLac) 41 g/L, 1% EtOH, human panel, dash = at none of the tested conc.
Protocol: A set of KCl solutions standards was developed and each standard solution was assigned a bitterness taste score of 0-15 (corresponding to aqueous KCl concentrations of 0 mM-120 mM). Panelists were trained to recognize these standards. In addition, before each day of testing, panelists were tested to see if they could determine differences in taste between the standard solutions, if a panelist was unable to recognize a change in KCl concentration, they were excluded from the panel for that day. In a blind taste test, panelists were asked to compare the bitter taste of a small quantity (e.g. 8 ml) of each of the KCl Test Solutions to the taste of a KCl solution standard, without swallowing (see, e.g., Table 1). Specifically, panelists were asked to rate the bitterness of each KCl Test Solution on a scale of 0-15 using the same scale developed for the KCl solution standards. Each sample was tested in 2-4 discrete taste test experiments. Panelists were asked to rinse with water, eat a cracker, and wait approximately 10 minutes between samples. Edible potassium lactate solution compositions (“potassium lactate test solutions”) were prepared by first dissolving varying amounts of the test compounds in an amount of ethanol or water (depending on the solubility of the compound) to create a 5 mg/mL stock compound solution. An amount of this stock compound solution is then added to an aqueous potassium lactate solution. Enough EtOH is then added to the resulting stock compound/potassium lactate solution so that the final potassium lactate test solution contains 1% EtOH. Potassium lactate solution standards were similarly prepared by dissolving various amounts of potassium lactate in water and ethanol without adding any test compound. […] The effect of the test compounds on the perception of the bitter taste of an aqueous solution of potassium lactate in humans was evaluated using the “sip and spit” test described in Example 2.

[3] = tested on: bitter taste of KCl foodstuff slurries; experiment: Two-alternative forced choice (2AFC) sip and spit test of KCl turkey foodstuff slurries; conditions: turkey slurry with KCl 1.6%, 1% EtOH, 2AFC vs KCl slurry standard, dash = at none of the tested conc.; for minimal effective concentration: Homo sapiens
Protocol: Edible KCl food compositions (“KCl test foodstuff slurries”) were prepared as follows. Dehydrated, salt-free turkey powder was weighed and mixed with various amounts of KCl and/or NaCl and then solubilized with boiling water to create a homogenized solubilized turkey slurry. Varying amounts of the test compounds were dissolved in an amount of ethanol or water (depending on the solubility of the compound) to create a 5 mg/mL stock compound solution. An amount of this stock compound solution was then added to the turkey slurry. Enough EtOH is then added to the resulting stock compound/turkey slurry so that the slurry contains 1% EtOH. The slurry was again homogenized by boiling and mixing and allowed to cool to yield the final KCl test foodstuff slurry for taste testing. KCl foodstuff slurry standards were similarly prepared without any test compound. […] The effect of the test compounds on the perception of the bitter taste of KCl foodstuff slurries in humans was evaluated using a two-alternative-forced-choice “sip and spit” test as follows. In a blind taste test, panelists received two portions of turkey slurry—one portion being the KCl foodstuff slurry standard and the other being one of the KCl test foodstuff slurries (each prepared as described in Example 5). The panelists tasted each of the portions by sipping and spitting. Each sample was tested in 2-4 discrete taste test experiments. Panelists were asked to rinse with water, eat a cracker, and wait about 10 minutes between samples. In each case, the panelists were asked to compare the bitter taste of the two turkey samples to each other (i.e. panelists were asked to indicate which sample was less bitter).

[4] = read-out: Conc. Where Decrease in Bitter Taste Discerned and p ≦ 0.1
[5] = read-out: Conc. at Which At Least 50% of Panelist Discerned Decrease in Bitter Taste
[6] = read-out: Conc. Where Decrease in Bitter Taste Was Discerned
[7] = read-out: Conc. at Which At Least 50% of Panelist Discerned Decrease in Bitter Taste and p ≦ 0.1

With `COc1ccc(NC(=O)CCOc2cccc(C)c2)cc1` [Compound 52] the “Conc. Where Decrease in Bitter Taste Discerned and p ≦ 0.1” value [1] was 10 ppm, the “Conc. Where Decrease in Bitter Taste Discerned and p ≦ 0.1” value [2] was 30 ppm and the “Conc. at Which At Least 50% of Panelist Discerned Decrease in Bitter Taste and p ≦ 0.1” value [3] was 10 ppm.
`COc1ccc(NCc2ccccc2C)cc1OC` [Compound 20] showed a minimal effective concentration [1, 4] of 1 µg/mL and a minimal effective concentration [2, 4] of 5 µg/mL.
Work on `CCn1ccc(C(=O)Nc2ccccc2C(=O)OC)n1` [Compound 36] yielded a minimal effective concentration [1, 4] of 10 µg/mL and a minimal effective concentration [3, 5] of 10 µg/mL.
With `CCOc1cc(CNc2ccccc2SC)ccc1OC` [Compound 4] the minimal effective concentration [1, 4] was 10 µg/mL.
With `O=C(O)c1cc(Br)cc2c1NC(c1ccc(Cl)cc1)C1CC=CC21` (centres unmarked) [Compound 43] the minimal effective concentration [1, 6] was 1 µg/mL.
`CCOc1cc(CNc2cc(C)ccc2C)ccc1OC` [Compound 12] showed a minimal effective concentration [1, 4] of 10 µg/mL and a minimal effective concentration [3, 5] of 10 µg/mL.
In the case of `Cc1ccc2nc3c(F)c(N4CCOCC4)c(F)c(F)c3c(C)c2c1` [Compound 46], the minimal effective concentration [1, 4] is reported as 1 µg/mL, the minimal effective concentration [2, 6] is reported as 30 µg/mL and the minimal effective concentration [3, 5] is reported as 1 µg/mL.
Molecule `COC(=O)c1ccccc1NC(=O)c1c(Cl)cnn1C` [Compound 27] has a minimal effective concentration [3, 5] of 30 µg/mL.
With `COC(=O)c1ccc(C)c(NC(=O)c2c(Cl)cnn2C)c1` [Compound 31] the “Conc. at Which At Least 50% of Panelist Discerned Decrease in Bitter Taste” value [3] was 1 ppm.
Work on `Cc1c2ccccc2nc2c(F)c(N3CCN(C)CC3)c(F)c(F)c12` [Compound 44] yielded a minimal effective concentration [1, 4] of 10 µg/mL, a minimal effective concentration [1, 6] of 10 µg/mL and a minimal effective concentration [2, 4] of 10 µg/mL. For the same molecule, the minimal effective concentration [3, 5] was 10 µg/mL.
`CC(=O)Oc1ccc(C2Nc3c(C(=O)O)cccc3C3C=CCC32)cc1` (centres unmarked) [Compound 39] gave a minimal effective concentration [3, 7] of 10 µg/mL.
Molecule `COc1cc(/C=N/c2ccccc2C)ccc1O` [Compound 2] has a minimal effective concentration [1, 4] of 1 µg/mL and a minimal effective concentration [3, 5] of 10 µg/mL.
`COc1ccc(CNc2ccc(Br)cc2C)cc1OC` [Compound 8] was tested, and the minimal effective concentration [1, 6] was 1 µg/mL.
For `CCCC(=O)Nc1ccc(C)c(Cl)c1` [Compound 50], the minimal effective concentration [1, 6] was 1 µg/mL.
Work on `Cc1nc2c(C)cccc2c(O)c1CN1CCN(c2ccccc2)CC1` [Compound 48] yielded a minimal effective concentration [1, 4] of 1 µg/mL, a minimal effective concentration [2, 4] of 1 µg/mL and a minimal effective concentration [2, 6] of 1 µg/mL. It also gave a minimal effective concentration [3, 5] of 10 µg/mL.
In the case of `Cn1ncc(Cl)c1C(=O)Nc1ccccc1C(N)=O` [Compound 33], the minimal effective concentration [1, 6] is reported as 1 µg/mL.
`COc1cccc(CNc2cc(C)ccc2C)c1OC` [Compound 15] was tested, and the minimal effective concentration [1, 4] was 10 µg/mL, the minimal effective concentration [3, 5] was 10 µg/mL and the minimal effective concentration [3, 7] was 10 µg/mL.
In the case of `COC(=O)c1cccc2c1NC(c1ccc(Cl)cc1)C1CC=CC21` (centres unmarked) [Compound 42], the minimal effective concentration [3, 5] is reported as 1 µg/mL.
With `COc1cccc(CNc2cccc(C)c2)c1OC` [Compound 5] the minimal effective concentration [1, 6] was 10 µg/mL.
`CCOc1ccc(CNc2ccc(C)cc2C)cc1OC` [Compound 17] was tested, and the “Conc. Where Decrease in Bitter Taste Was Discerned” value [1] was 1 ppm and the “Conc. Where Decrease in Bitter Taste Was Discerned” value [2] was 1 ppm.
With `CCn1ncc(Cl)c1C(=O)Nc1cc(Cl)ccc1Cl` [Compound 28] the “Conc. at Which At Least 50% of Panelist Discerned Decrease in Bitter Taste” value [3] was 10 ppm.
`CCOc1cc(CNc2ccccc2)ccc1OC` [Compound 10] was tested, and the “Conc. Where Decrease in Bitter Taste Discerned and p ≦ 0.1” value [1] was 1 ppm.
For `COc1ccc(CNc2cc(C)ccc2C)cc1OC` [Compound 14], the “Conc. Where Decrease in Bitter Taste Discerned and p ≦ 0.1” value [1] was 1 ppm and the “Conc. Where Decrease in Bitter Taste Was Discerned” value [2] was 5 ppm.
With `CCn1ncc(Cl)c1C(=O)Nc1cccc(Cl)c1Cl` [Compound 29] the “Conc. Where Decrease in Bitter Taste Discerned and p ≦ 0.1” value [1] was 10 ppm, the “Conc. Where Decrease in Bitter Taste Was Discerned” value [2] was 5 ppm and the “Conc. at Which At Least 50% of Panelist Discerned Decrease in Bitter Taste” value [3] was 1 ppm. The “Conc. at Which At Least 50% of Panelist Discerned Decrease in Bitter Taste and p ≦ 0.1” value [3] was 1 ppm.
Molecule `CCOc1ccc(CNc2ccccc2C)cc1OC` [Compound 3] has a minimal effective concentration [1, 4] of 2 µg/mL, a minimal effective concentration [1, 6] of 2 µg/mL and a minimal effective concentration [2, 4] of 1 µg/mL.
Work on `COc1cc(CNc2cccc(C)c2C)ccc1OCc1ccccc1` [Compound 22] yielded a minimal effective concentration [1, 4] of 1 µg/mL.
For `Cc1ccc(NC(=O)CCOc2ccccc2)c(C)c1` [Compound 54], the minimal effective concentration [3, 5] was 1 µg/mL.
`Cc1c2ccccc2nc2c(F)c(N3CCCC3)c(F)c(F)c12` [Compound 45] was tested, and the minimal effective concentration [1, 4] was 0.1 µg/mL and the minimal effective concentration [3, 5] was 1 µg/mL.
With `Cc1nc2c(C)ccc(C)c2c(O)c1CN1CCN(c2ccccc2)CC1` [Compound 47] the minimal effective concentration [3, 5] was 10 µg/mL and the minimal effective concentration [3, 7] was 10 µg/mL.
In the case of `COc1ccc(OC)c(CNc2cc(C)ccc2C)c1` [Compound 7], the “Conc. Where Decrease in Bitter Taste Discerned and p ≦ 0.1” value [1] is reported as 1 ppm, the “Conc. Where Decrease in Bitter Taste Was Discerned” value [1] is reported as 1 ppm and the “Conc. at Which At Least 50% of Panelist Discerned Decrease in Bitter Taste” value [3] is reported as 1 ppm.
`CCn1ccc(C(=O)Nc2cc(OC)c(OC)cc2C(=O)OC)n1` [Compound 35] gave a minimal effective concentration [1, 4] of 1 µg/mL, a minimal effective concentration [1, 6] of 1 µg/mL and a minimal effective concentration [3, 5] of 10 µg/mL.
With `CCOc1cc(CNc2cccc(Cl)c2C)ccc1OC` [Compound 6] the minimal effective concentration [1, 6] was 1 µg/mL.
`COc1cc(CO)ccc1OCc1ccccc1C` [Compound 1] showed a minimal effective concentration [3, 5] of 1 µg/mL.
With `COc1ccccc1CNc1cc(C)ccc1OC` [Compound 19] the minimal effective concentration [1, 4] was 1 µg/mL, the minimal effective concentration [1, 6] was 1 µg/mL and the minimal effective concentration [3, 7] was 10 µg/mL.
